Values of other authors as cited in PMC5915681 (PLoS ONE, 2018).

Design: method as in PMID 24450858, PMID 24450857

CC[C@H](Nc1ncnc2[nH]cnc12)c1nc2cccc(F)c2c(=O)n1-c1ccccc1 [idelalisib, Idelalisib]
side effects: hepatotoxicity and gastrointestinal toxicity
